No end group written: not given here. *: point of attachment. Biotin = O=C1N[C@H]2[C@H](CS[C@H]2CCCCC(=O)*)N1
How the values were obtained:
[1] = test system: cell surface CLIP on Raji and Daudi cells; assay: Competition of synthetic peptides with cell surface CLIP (Fitc anti-human CLIP); format: cell-based; conditions: biotinylated competing peptide
From the text: Based on a computational model comparing the peptide content of TNP mixture and identifying those peptides that would have the likeliest ability to compete for the peptide/antigen binding site for MHC class II (human HLA-DR, DP, and DQ), several peptide candidates were synthesized and examined for activity. The purpose of the study was to determine if synthetic peptides can compete for binding with CLIP peptides as measured with either Fitc anti-human CLIP antibody or, comparatively in the case of biotinylated peptides, with Streptavidin.
Cell Culture Conditions: The Raji and Daudi cell lines were purchased from American Type Culture Collection, were thawed, and grown in RPMI 1640 medium supplemented with standard supplements, including 10% fetal calf serum, gentamycin, penicillin, streptomycin, sodium pyruvate, HEPES buffer, 1-glutamine, and 2-ME.
Protocol: Cells were plated into a 12 well plate with 3 mls total volume containing approximately 1.5×10^6/well for Daudi cells and 3.0×10^6/well for Raji cells. Treatment groups included no treatment as control; MKN 3 and MKN 5 at 50 microMolar final concentration based on the reported molarity of the synthesized compounds.
The cells were incubated at 37° C. in an atmosphere containing 5% CO2 and approximately 92% humidity. The cells were incubated for 4 and 24 hours. At each time point, the cells from that experimental time were harvested and stained for flow cytometric analysis of cell surface expression of CLIP (MHC Class II invariant peptide, human) by using the commercially available (Becton/Dickinson/PHarmingen) anti-human CLIP Fitc. Catalogue #555981 versus Streptavidin.
Harvested cells were stained using standard staining procedure that called for a 1:100 dilution of Fitc-anti-human CLIP or isotype control versus 1:200 dilution of the commercially prepared Streptavidin. Following staining on ice for 25 minutes, cells were washed with PBS/FCS and resuspended in 100 microliters and added to staining tubes containing 400 microliters of PBS. Samples were acquired and analyzed on a Coulter Excel Flow Cytometer.
In the Histogram analyses of FIGS. 5-7 the Y axis represents cell number of the 5000 live cells versus the X axis which is a reflection of relative Fitc fluorescence versus Streptavidin-PE (eBioscience, Cat. #12-4317) that will bind with high affinity to cell-bound biotinylated peptides. The distance between the histogram from the isotype control staining versus the histogram reflecting the specific stain and is a measure of level of cell surface CLIP or the biotinylated peptide when stained with Streptavidin on a population of live Raji or Daudi cells as indicated.

[2] = test system: CLIP^+ B cells in human PBMC; assay: Peptide replacement of CLIP on R848-activated human PBMC B cells; format: cell-based; conditions: PBMC of two donors cultured with R848 for 48 hours with peptide
Method: (§1) FIG. 13 depicts TLR activation results in ectopic CLIP expression on human B cells from peripheral blood mononuclear cells (PBMC) cultures. FIG. 13a: human PBMC from five donors were cultured for 24 hours with toll ligands (CpG-ODN, LPS, Pam3Cys, and Poly I:C) and were stained with a pan anti-HLA-DR-FITC antibody (values of isotype controls were subtracted from the specific stains, ΔMFI). FIG. 13b: cells were stained using anti-human CLIP-FITC versus CD19-PE (values of isotype controls were subtracted from the specific stains, ΔMFI). For FIGS. 13a & 13b: nil vs. CpG p=0.06821; nil vs. LPS p=0.0390; nil vs. PAM p=0.0124. FIG. 13c: cells were stained for CLIP-FITC versus CD19-PE as described for FIG. 13b. The data represent the percent of total PBMC that are CLIP+ B cells subsequent to treatment. For FIG. 13c: nil vs. CpG p=0.0058; nil vs. LPS p=0.0254. […]
(§2) PBMC were prepared from a total of seven adult normal donors, five for examining the effects of TLR binding on the percentage of ectopic CLIP^+ B cells and changes in mean fluorescence intensity of the CLIP staining resulting from TLR stimulation with CpG-ODN, LPS, Pam-3-Cys, and Poly I:C. […] Cells were analyzed using either a BD FacsCalibur, for the five samples, or a Coulter FC500 for the two tissue typed samples. […]

B cell surface CLIP = B cell surface CLIP after 2-Deoxyglucose and dichloroacetate (FIG. 4); format: cell-based
mouse splenic B cells = assay: TLR activation of mouse splenic B cells: ectopic CLIP in MHC class II; format: cell-based; conditions: for exogenous CLIP expression on activated mouse B cells: treatment in vitro with Toll ligand, FIG. 12d
Method: FIG. 12 depicts TLR activation of mouse splenic B cells results in ectopic CLIP in MHC class II. FIG. 12a: LPS activation of spleen cells from B6.129 mice (H-2b). B cells are detected by staining with PE conjugated anti-mouse B220, shown on Y-axis, versus staining with 15G4-FITC anti-mouse CLIP/I-Ab, as shown on the X-axis. A representative of four experiments at unique time points, 0 to 72 hours by 24-hour increments, left to right, is shown. FIG. 12b (linear representation from FIG. 12a): changes in percentages of CLIP+ B cells, left Y-axis, and quantitative depiction of increasing mean fluorescence intensity of CLIP/I-Ab staining, right Y-axis. FIG. 12c: antigen receptor engagement increases cell surface MHC class II but not ectopic CLIP. B6.129 splenocytes, untreated or treated in vitro with anti-immunoglobulin (as a surrogate for antigen) or CpG-ODN were stained with anti-mouse B220-PE versus 15G4-FITC anti-mouse CLIP/I-Ab (bars, left Y-axis) or with anti-mouse B220-PE versus anti-mouse MHC class II-FITC (I-Ab) (line graph, right Y-axis). FIG. 12d: toll ligands 9, 10 used to activate cells, listed from top down, Poly I:C, Pam3Cys, R848, LPS, CpG-ODN, and no treatment, as indicated. Shown are percentages of CLIP+ B cells in splenocytes stimulated […] from B6.129 mice, left panel; H2M-deficient mice, middle panel; Ii-deficient mice, right panel.
Total splenocytes, from either B6.129, Ii-deficient, or H2M-deficient mice were cultured with LPS for 24, 48, 72, or 96 hours as indicated. Cells were harvested and stained by two-color fluorescence using 15G4-FITC anti-mouse CLIP/I-A^b versus anti-mouse B220 PE.
Freshly isolated splenocytes, single cell suspensions of lymph node cells, resting (or activated) B cells, or primed B cells were isolated from B6.129, Ii-deficient, or H2M-deficient mice and cultured in 24 well plates in complete RPMI medium, with or without the appropriate Toll ligand, at 10^6 cells/ml. Cells were cultured for 24, 48, 72, 96, or up to 144 hours. Cells were harvested and stained by flow cytometric analysis using either a Beckman Coulter Excel or a Beckman Coulter FC500 flow cytometer. Cells were stained by two-color fluorescence using 15G4-FITC anti-mouse CLIP/I-A^b versus anti-mouse B220 PE. For co-culture experiments (5×10^5) were combined with T cells (5×10^4) in 24 well plates in complete medium, with or without the appropriate antigen. Experiments with 3A9, 2A11 or A6.A2 employed 3 mg/ml tryptic digest of HEL as a source of pre-processed antigen, i.e., peptide. Cultures were incubated overnight at […] in a humidified 5% CO2, 95% air incubator.
Multi-parameter flow cytometric analysis for the fluorescent detection of ectopic CLIP, mouse B220, human CD19 or CD20, human CLIP, human HLA-DR, and human CLIP or apoptosis were performed using a Beckman Coulter Excel or a Beckman Coulter FC500 flow cytometer (Beckman Coulter, Hialeah, Fla.). Mouse splenic cells were cultured in complete RPMI for the times indicated. Resting, primed, or activated B cells were cultured in the presence of T cells (vide supra). At the end of 16 h of culture, the cells were harvested and washed. Ethidium bromide (detected by red fluorescence) was added immediately before analysis of each tube. The cells were analyzed by first gating using forward vs. side scatter then using increased fluorescence as a measure of detection of the indicated cell surface antigens.

[3] = test system: human B cells from peripheral blood mononuclear cells (PBMC); assay: TLR activation of human B cells in PBMC cultures: ectopic CLIP; format: cell-based; conditions: PBMC from five healthy donors, 24 hours, 5 μg per ml
Method: as §1, §2

Raji or Daudi cells = assay: Cell surface CLIP and CD74 levels after MKN1 (bioCLIP); format: cell-based, human
Method: The ability of MKN1 (bioCLIP) to alter cell surface CLIP and CD74 levels was also determined using Raji or Daudi cells.

For KALVQNDTLLQVKG [SEQ ID NO 1], the “cell surface bound CLIP” value ([1]; 4 hours) was “small decreases in cell surface bound CLIP” and the “cell surface bound CLIP” value ([1]; 24 hours) was “significant decreases”.

In the case of ANSGIIGDITEEVGGQY [VGV-pB], the “percentage of CLIP^+ B cells and level of CLIP per B cell” value [2] is reported as “reduced the frequency of CLIP^+ B cells and the level of CLIP per cell in one individual but not the other”.

For `O=CC[C@@H](O)[C@H](O)[C@H](O)CO` [2-Deoxyglucose, 2-deoxy-D-glucose], the “B cell surface CLIP” value (B cell surface CLIP) was “affects B cell surface CLIP”.

`CCOCc1nc2c(N)nc3ccccc3c2n1CC(C)(C)O` [R848, imidazoquinoline resiquimod] was tested, and the “exogenous CLIP expression on activated mouse B cells” value (from here on “exogenous CLIP expression”) (mouse splenic B cells) was “resulted in exogenous CLIP expression on the activated mouse B cells”.

For “polyinosinic:polycytidylic acid [Poly I:C]”, the “exogenous CLIP expression” value (mouse splenic B cells) was “resulted in exogenous CLIP expression on the activated mouse B cells”.

lipopolysaccharide [LPS] was tested, and the “exogenous CLIP associated with MHC class II on splenic B cells” value (mouse splenic B cells; in vitro stimulation of resting mouse splenocytes, 0 to 72 hours) was “time-dependent increase in exogenous CLIP associated with MHC class II”, the “exogenous CLIP expression” value (mouse splenic B cells) was “resulted in exogenous CLIP expression on the activated mouse B cells” and the “ectopic CLIP on human B cells” value [3] was “Statistically significant increases in ectopic CLIP”.

“SGGGSKMRMATPLLMQALY (Biotin-SGGGSKMRMATPLLMQALY) [MKN1]” was tested, and the “cell surface CLIP and CD74 levels” value (Raji or Daudi cells) was “alters cell surface CLIP and CD74 levels”.

“(S)-(2,3-bis(palmitoyloxy)-(2RS)-propyl)-N-palmitoyl-(R)-Cys-(S)-Ser(S)-Lys4-OH, trihydrochloride [Pam3Cys]” was tested, and the “exogenous CLIP expression” value (mouse splenic B cells) was “resulted in exogenous CLIP expression on the activated mouse B cells”.

Source: patent US20100034839A1, “METHODS FOR TREATING VIRAL DISORDERS” (priority 2008, published 2010)
